One data set concerns Aerobacter aerogenes. Put plainly: Gradient Plate in vitro method, MIC. Type of data set: cell-based. Conditions: Klebsiella aerogenes, read-out: Minimum Inhibitory Concentration. The text has this: (§1) The antibiotic activity of the cephalosporin compounds of the formula I is illustrated by the data presented in Table I for representative compounds. The values in the table are the minimum inhibitory concentrations (MIC) for the test compounds against the indicated microorganisms. The MIC values were obtained in the Gradient Plate in vitro method for determining antibiotic activity.
(§2) Minimum Inhibitory Concentration (mcg./ml.)

Another data set concerns Klebsiella pneumoniae. Put plainly: Gradient Plate in vitro method, MIC. The class given is cell-based. The settings on record: read-out: Minimum Inhibitory Concentration.
Description: as §1, §2

A further data set relates to Pseudomonas aeruginosa. The experiment in a line: Gradient Plate in vitro method, MIC. Type of data set: cell-based. The settings on record: read-out: Minimum Inhibitory Concentration.
Description: as §1, §2

In a further data set the test system is Salmonella heidelberg. The experiment in a line: Gradient Plate in vitro method, MIC. Type of data set: cell-based. Conditions: Salmonella enterica, read-out: Minimum Inhibitory Concentration.
Description: as §1, §2

The test system of a further data set is Shigella sp. Put plainly: Gradient Plate in vitro method, MIC. The class given is cell-based. The settings on record: read-out: Minimum Inhibitory Concentration.
Description: as §1, §2

The test system of data set [1] is Escherichia coli. Put plainly: Gradient Plate in vitro method, MIC. The class given is cell-based. The settings on record: read-out: Minimum Inhibitory Concentration. The text has this: (§3) The values in the table are the minimum inhibitory concentrations (MIC) for the test compounds against the indicated microorganisms. The MIC values were obtained in the Gradient Plate in vitro method for determining antibiotic activity.

The test system of the next data set is Serratia marcescens. The experiment in a line: Gradient Plate in vitro method, MIC. Type of data set: cell-based. Conditions: read-out: Minimum Inhibitory Concentration.
Description: as §3

The next data set has as its system V32. Put plainly: Gradient Plate in vitro method, MIC. Conditions: V32, penicillin resistant Staphylococcus, read-out: Minimum Inhibitory Concentration. Type of data set: cell-based, penicillin resistant Staphyloccus.
Description: as §1, §2
(§4) ^1 Test organisms V41, V32 and V84 are penicillin resistant
(§5) Staphyloccus, X400 is a methicillin resistant Staphylococcus.

The next data set deals with V41. The experiment in a line: Gradient Plate in vitro method, MIC. The settings on record: V41, penicillin resistant Staphylococcus, read-out: Minimum Inhibitory Concentration. The class given is cell-based, penicillin resistant Staphyloccus.
Description: as §1, §2, §4, §5

Another data set deals with V84. The experiment in a line: Gradient Plate in vitro method, MIC. Conditions: V84, penicillin resistant Staphylococcus, read-out: Minimum Inhibitory Concentration. Type of data set: cell-based, penicillin resistant Staphyloccus.
Description: as §1, §2, §4, §5

The subject of a further data set is X400. The experiment in a line: Gradient Plate in vitro method, MIC. Conditions: X400, methicillin resistant Staphylococcus, read-out: Minimum Inhibitory Concentration. The class given is cell-based.
Description: as §1, §2, §4, §5

For the next data set, the system named is Staphylococcus aureus. Put plainly: standard gear agar dilution method, MIC. The class given is cell-based. The text has this: In the standard gear agar dilution method, the MIC values for the above test compounds A through E against Staphylococcus aureus were as follows: A, 2; B, 1; C, 0.5; D, 2; and E, 0.5 mcg./m1.
Data set [2] can be described thus: Electrometric titration in 66 percent DMF. Type of data set: physicochemical. The settings on record: 66% dmf.
Data set [3] deals with Escherichia coli. The experiment in a line: in vivo effective dose in experimental infections in mice. Conditions: ip, E. coli infection in mice. The text has this: (§6) The in vivo effective dose […] in mg./kg. for representative antibiotics of the formula I has been determined in experimental infections in mice. Table II lists the ED50 dose vs. Streptococcus pyogenes and Escherichia coli infections. In the table, the antibiotics are identified with the R", R', and R1 -R3 terms of Formula I. |Test Compound ED50 (mg/kg × 2) i.p.

In a further data set the test system is Streptococcus pyogenes. Described as above. The settings on record: ip, S. pyogenes infection in mice.
Description: as §6

≈ marks a conversion by molar mass, not a printed value.

A word on the pKa: it is the negative logarithm of the acid dissociation constant. Read a low pKa as a group that gives up its proton readily. As for `CNC(=O)N(C)C(=O)NC(C(=O)NC1C(=O)N2C(C(=O)O)=C(CSc3nnc(C)s3)CSC12)c1ccc(O)cc1` (stereo not drawn) [Test Compound B, 7-[α-(3-methylcarbamoyl-3-methyl-1-ureido)-α-(4-hydroxyphenyl)acetamido]-3-(5-methyl-1,3,4-thiadiazole-2-ylthiomethyl)-3-cephem-4-carboxylic acid], the MIC in the data set on Aerobacter aerogenes worked out at 4 µg/mL (≈ 6.58 µM); in the data set on Klebsiella pneumoniae, 4 µg/mL (≈ 6.58 µM); in the data set with Pseudomonas aeruginosa, 28 µg/mL (≈ 46.1 µM); in the data set with Salmonella heidelberg it was 2 µg/mL (≈ 3.29 µM); in the data set on Shigella sp., 3 µg/mL (≈ 4.94 µM); in the data set on Escherichia coli [1], 4 µg/mL (≈ 6.58 µM). Also, the MIC was 19 µg/mL (≈ 31.3 µM) in the data set on Serratia marcescens; 10 µg/mL (≈ 16.5 µM) in the data set with V32; 8 µg/mL (≈ 13.2 µM) with V41; 0.6 µg/mL (≈ 0.987 µM) with V84; over 20 µg/mL with X400; 1 µg/mL (≈ 1.65 µM) with Staphylococcus aureus. In addition, the pKa in data set [2] (first of two titratable groups) came out at 4.8; in data set [2] (second of two titratable groups), 12.2.
Usually ED50 stands for the dose that gives a 50% effect, or the effect in half of the subjects. A lower ED50 goes with an effect at a small dose. As for `CNC(=O)N(C)C(=O)NC(C(=O)NC1C(=O)N2C(C(=O)O)=C(CSc3nnnn3C)CSC12)c1ccc(O)cc1` (stereo not drawn) [Test Compound A, 7-[α-(3-methylcarbamoyl-3-methyl-1-ureido)-α-(4-hydroxyphenyl)acetamido]-3-(1-methyl-1H-tetrazole-5-ylthiomethyl)-3-cephem-4-carboxylic acid], the MIC with Aerobacter aerogenes turned out to be 1 µg/mL (≈ 1.69 µM); in the data set with Klebsiella pneumoniae, 3.5 µg/mL (≈ 5.92 µM); with Pseudomonas aeruginosa, 18 µg/mL (≈ 30.4 µM); in the data set with Salmonella heidelberg it was 1 µg/mL (≈ 1.69 µM); in the data set on Shigella sp. it was 1 µg/mL (≈ 1.69 µM); in the data set with Escherichia coli [1], 1 µg/mL (≈ 1.69 µM). For the same molecule, the MIC is 8 µg/mL (≈ 13.5 µM) in the data set on Serratia marcescens; 4.8 µg/mL (≈ 8.11 µM) in the data set on V32; 4 µg/mL (≈ 6.76 µM) in the data set on V41; 0.6 µg/mL (≈ 1.01 µM) in the data set on V84; over 20 µg/mL in the data set on X400; 2 µg/mL (≈ 3.38 µM) against Staphylococcus aureus. Moreover, the values for the ED50 with Escherichia coli [3] and in the data set on Streptococcus pyogenes were 72 mg/kg and 0.7 mg/kg, respectively.

The values above are taken from patent publication US4224442A, “7-Ureido acetamido substituted cephalosporin antibiotics” (Eli Lilly and Company, priority 1975, dated 1980).
